Data taken from patent US12036222B2, “Methods of treating cancers overexpressing CARM1 with EZH2 inhibitors and a PARP inhibitor” (The Wistar Institut of Anatomy and Biology, priority 2018, dated 2024).
Entries after “also recorded” stand apart in the source; their conditions may differ.

How the values were obtained:
[1] = system: TIMP3 promoter; experiment: ChIP-qPCR at TIMP3 promoter; format: cell-based, human; conditions: A1847 cells, 10 μM GSK126
Procedure: FIGS. 62 to 65 illustrate the results of a ChIP analysis in parental control and CARM1 knockout A1847 cells treated with 10 μM GSK126 or vehicle controls. The cells were subjected to ChIP analysis using anti-EZH2 (FIG. 62), anti-H3K27Me3 (FIG. 63), anti-BAF155 (FIG. 64), or anti-RNA Pol II (FIG. 65) antibodies. An isotype-matched IgG was used as a negative control. ChIP products were subjected to qPCR analysis using primers specific for the promoter regions of the human TIMP3 genes. Mean of three independent experiments with SEM.* p<0.001 compared with controls.
(§1) ChIP was performed as described in Tu et al. Developmental Cell(2011) 21:1077-91. The following antibodies were used to perform ChIP: anti-H3K27Me3 (Cell Signaling, Cat. No: 9733), anti-BAF155 (Santa Cruz, Cat. No: sc-9746), anti-RNA polymerase II (Santa Cruz, Cat. No: sc-899) or anti-EZH2 (Cell Signaling, Cat. No: 5246). An isotype matched IgG was used as a negative control. ChIP DNA was analyzed by quantitative PCR against the promoter of the indicated genes using the following primers: DAB2 Forward: 5′-[…]-3′ (SEQ ID NO: 10) and DAB2 Reverse: 5′-[…]-3′ (SEQ ID NO: 11); DLC1 Forward: 5′-[…]-3′ (SEQ ID NO: 12) and DLC1 Reverse: 5′-[…]-3′ (SEQ ID NO: 13); NOXA Forward: 5′-[…]-3′ (SEQ ID NO: 14) and NOXA Reverse: 5′-[…]-3′ (SEQ ID NO: 15); TIMP3 Forward: 5′-[…]-3′ (SEQ ID NO: 16) and TIMP3 Reverse: 5′-[…]-3′ (SEQ ID NO: 17).

[2] = system: A1847 parental and CARM1 knockout cells; experiment: Epigenetic targeting small molecule set screen (14-day colony formation); format: cell-based, human; conditions: 14 days, normalized to vehicle
Procedure: FIG. 26 illustrates that CARM1-expressing cells are selectively sensitized to EZH2 inhibitors. Equal number of parental control or CARM1 knockout […] cells were plated and treated with each of the 23 individual epigenetic inhibitors for 14 days. The media with the inhibitors was refreshed every 3 days. Cell growth was quantified as integrated density using NIH Image J software. Quantification of the average integrated density graphed as a scatter plot. The X-axis indicates the relative growth of treated CARM1 high parental […] cells compared with DMSO vehicle controls. Y-axis indicates the relative growth of treated CARM1 knockout […] cells compared with DMSO vehicle controls. n=4; and error bars represents SEM. FIG. 27 illustrates a table of EZH2 inhibitors that are selective against CARM1 expression. CARM1-high parental controls and CARM1 knockout […] cells were treated with the indicated concentration of the small molecules in a 14-day colony formation assay. Integrated density for each well was calculated using NIH Image J software. The relative growth of the indicated cells was determined by normalizing to the vehicle control treated cells. n=4 and p-value was calculated using a two-tailed t-test. […] parental and CARM1 knockout cells were plated in 24-well plates and treated with 24 epigenetic compounds. Cell medium was changed every three days with appropriate drug doses for 14 days or until control wells became confluent. Colonies were washed twice with PBS and fixed with 10% methanol and 10% acetic acid in distilled water. Fixed colonies were stained with 0.005% crystal violet. Integrated density was measured using NIH ImageJ software as a surrogate for cell growth.

[3] = system: TIMP3; experiment: qRT-PCR of BAF155Me target gene in cells; format: cell-based, human; conditions: parental and CARM1 knockout A1847 cells, 10 μM GSK126
Procedure: FIG. 57 illustrates the relative mRNA expression of BAF155Me target gene TIMP3, which was determined by qRT-PCR. Parental control and CARM1 knockout A1847 cells were treated with 10 μM GSK126 or vehicle controls. *p<0.001. Mean of three independent experiments with SEM.
RNA was isolated by RNeasy Mini Kit (Qiagen). mRNA relative expression for DAB2, DLC1, and PMAIP was determined using SYBR green 1-step iScript (Bio-Rad) with a Life Technologies QuantStudio 3. The primers were: 5′-[…]-3′ (DAB2 forward (SEQ ID NO: 2)) and 5′-[…]-3′ (DAB2 reverse (SEQ ID NO: 3)); 5′-[…]-3′ (DLC1 forward (SEQ ID NO: 4)) and 5′-[…]-3′ (DLC1 reverse (SEQ ID NO: 5)); 5′-[…]-3′ (NOXA forward (SEQ ID NO: 6)) and 5′-[…]-3′ (NOXA reverse (SEQ ID NO: 7)); and 5′-[…]-3′ (TIMP3 forward (SEQ ID NO: 8)) and 5′-[…]-3′ (TIMP3 reverse (SEQ ID NO: 9)).

[4] = system: CARM1-depleted cells; experiment: Sensitization to Olaparib in CARM1-depleted cells; format: cell-based; conditions: data not shown
Text: Therefore, CARM1-expressing EOC can be treated and ultimately eradicated by combinatory targeting EZH2 and PARP using clinically applicable small molecule inhibitors.

[5] = system: CARM1-expressing cell lines (A1847, OVCAR10, and PEO4); experiment: Colony formation assay and GSK126 response curves in CARM1-expressing ovarian cancer cell lines; format: cell-based, human
Procedure: In FIG. 4, CARM1 expression in a panel of high-grade ovarian carcinomas is depicted. FIG. 5 illustrates the results of a colony formation assay with a panel of normal and ovarian cancer cell lines with DMSO and with 10 μM of the EZH2 inhibitor GSK126 (Formula (1)).
In FIG. 7, response curves for GSK126 in a panel of normal and ovarian cancer cell lines are shown.
500 to 5,000 cell were plated into a 24 well tissue culture plate and treated with the indicated compounds. Medium was changed every three days with appropriate drug doses for 12 days or until control wells became confluent. Colonies were washed twice with PBS and fixed with 10% methanol and 10% acetic acid in distilled water. Fixed colonies were stained with 0.005% crystal violet. Integrated density was measured using NIH ImageJ software.

[6] = system: promoter regions of the human DAB2, DLC1, and NOXA genes; experiment: ChIP-qPCR at promoters of EZH2/BAF155 target genes; format: cell-based; conditions: A1847 cells
Text: FIGS. 58 to 61 illustrate the results of a ChIP analysis using anti-EZH2 (FIG. 58), anti-H3K27Me3 (FIG. 59), anti-BAF155 (FIG. 60), or anti-RNA Pol II (FIG. 61) antibodies. An isotype matched IgG was used as a negative control. ChIP products were subjected to qPCR analysis using primers specific for the promoter regions of the human DAB2, DLC1, and NOXA genes. Data is representative of three independent experiments. * p<0.001 compared with IgG controls and #p<0.001 compared with parental controls.
as §1

## CC[C@H](C)n1cc(C)c2c(C(=O)NCc3c(C)cc(C)[nH]c3=O)cc(-c3ccc(N4CCNCC4)nc3)cc21 [GSK126, (S)-1-(sec-butyl)-N-((4,6-dimethyl-2-oxo-1,2-dihydropyridin-3-yl)methyl)-3-methyl-6-(6-(piperazin-1-yl)pyridin-3-yl)-1H-indole-4-carboxamide]
[1]
  association of BAF155 and Pol II with the TIMP3 promoter: CARM1 KO but not EZH2 inhibitor GSK126 treatment decreased the association
[2]
  selective growth suppression of CARM1-expressing vs CARM1 KO cells: showed selectivity against CARM1-expressing cells; also recorded: selectively sensitive
[3]
  expression of BAF155Me target gene TIMP3: downregulated by CARM KO but not by EZH2 inhibitor GSK126
[4]
  sensitization to Olaparib: did not promote sensitization to Olaparib
[5]; 10 μM GSK126 vs DMSO, panel of normal and ovarian cancer cell lines
  sensitivity in colony formation assay: particular sensitivity of CARM1-expressing cells
[5]; CARM1-expressing lines A1847, OVCAR10, PEO4 compared with rest of panel of normal and ovarian cancer cell lines, numbers only in FIG. 8
  IC50 values from GSK126 response curves: Significantly reduced IC50 values
[5]; panel of EOC cell lines, 10 μM GSK126
  correlation of cellular response with CARM1 expression levels: correlation between CARM1 expression levels and cellular response to GSK126
[6]
  EZH2 association with target genes: without affecting EZH2's association with its target genes
  H3K27Me3 occupancy at target gene loci: decreased H3K27Me3 occupancy
